{"source": "paper PMC4496498", "about": "“Radiosynthesis, In Vivo Biological Evaluation, and Imaging of Brain Lesions with [^123I]-CLINME, a New SPECT Tracer for the Translocator Protein” (Disease Markers, 2015)", "key": {"[1]": {"tested_on": "TPSO", "conditions": "cited from earlier work"}, "[2]": {"experiment": "Lipophilicity, log P estimated from HPLC retention times", "format": "physicochemical", "conditions": "pH 7.5", "source_text": "The log P values were estimated by comparing HPLC retention times of test compounds with retention times of standards having known log P values as described."}, "[3]": {"biological_target": "central benzodiazepine receptor (CBR)", "experiment": "In vitro binding assay, central benzodiazepine receptor", "conditions": "membranes from kidney and brain cortex; read-out: inhibition constant for the CBR", "experimental": "(§1) […] (IC50) of CLINME for the TPSO and for the central benzodiazepine receptor (CBR) was determined as described previously. The IC50 values were converted to the inhibition constant, Ki, using Cheng-Prusoff equation."}, "[4]": {"biological_target": "T1, TSPO (Rattus norvegicus, UniProt P16257)", "conditions": "competing drug 1 mg/Kg i.v. 5 min prior to tracer; rats, 30 min p.i.; vs controls", "experimental": "The saturation effect of [^123I]-CLINME uptake was studied in competition experiments by injecting CLINME (1 mg/Kg), 5 min prior to [^123I]-CLINME (0.7 MBq, 10 pmoles in 0.1 mL of 0.9% saline), via the tail vein, to 8–10-week-old male SD rats.\nThe drugs were dissolved in dimethyl sulfoxide/saline (1 : 5) and injected intravenously 5 min prior to [^123I]-CLINME. Groups of rats (n = 3-4) were sacrificed by CO2 administration followed by cervical fracture 30 min after administration of [^123I]-CLINME and peripheral organs (liver, spleen, lung, heart, kidney, and adrenals), blood, olfactory bulbs, and the remainder of the brain were removed. The radioactivity concentrations were calculated as described previously. Results were analysed by one-way analysis of variance (ANOVA) followed by Tukey's post hoc test for comparing the tissue radioactivity concentrations in the treated animals (n = 3-4) and in the controls (n = 6). The criterion for significance was P < 0.05."}, "[5]": {"biological_target": "T1, TSPO", "experiment": "In vitro binding assay, TSPO, [^3H]-PK11195", "set-up": "from tissue", "experimental": "as §1"}, "[6]": {"biological_target": "T1, TSPO", "experiment": "In vitro binding assay, TSPO, [^3H]-Ro 5-4864", "set-up": "from tissue", "experimental": "as §1"}, "[7]": {"biological_target": "T1, TSPO", "experiment": "In vitro autoradiography with [^125I]-CLINME on lesioned brain tissue", "format": "binding, SD rats", "set-up": "from tissue; host or cells: male Sprague-Dawley rats: peripheral organs and brain in vivo; AMPA-lesioned striatum; brain sections", "conditions": "20 μM drug, 16 nM [^125I]-CLINME"}, "[8]": {"tested_on": "TPSO", "conditions": "rats, dose of 5 mg/Kg; cited from earlier work"}, "[9]": {"biological_target": "T1, TSPO", "set-up": "from tissue; method as in PMID 17680643", "conditions": "same animal model; cited from earlier work"}, "[10]": {"tested_on": "TPSO", "conditions": "cited from earlier work", "remark": "listed apart in the source"}}, "note": "Where two headings read alike, the source gives them in different places."}
{"smiles": "CCN(CC)C(=O)Cc1c(-c2ccc(I)cc2)nc2ccc(Cl)cn12", "note": "[CLINDE]", "values": [{"measurement": "selectivity for the TPSO over the CBR", "setting": "[1]", "value": 200, "unit": "fold"}]}
{"smiles": "CCN(C)C(=O)Cc1c(-c2ccc(I)cc2)nc2ccc(Cl)cn12", "note": "[CLINME, 2-(6-Chloro-2-(4-iodophenyl)imidazo[1,2-a]pyridin-3-yl)-N-ethyl-N-methylacetamide]", "values": [{"measurement": "chromatographic logP", "setting": "[2]", "value": 3.27}, {"measurement": "Ki", "setting": "[3]", "value": "183 ± 20", "unit": "nM"}, {"measurement": "decrease of [^123I]-CLINME uptake in the heart", "setting": "[4]", "value": 86, "unit": "%"}, {"measurement": "decrease of [^123I]-CLINME uptake in the kidney", "setting": "[4]", "value": 71, "unit": "%"}, {"measurement": "decrease of [^123I]-CLINME uptake in the lungs", "setting": "[4]", "value": 76, "unit": "%"}, {"measurement": "decrease of [^123I]-CLINME uptake in the olfactory bulbs", "setting": "[4]", "value": 38, "unit": "%"}, {"measurement": "increase of [^123I]-CLINME uptake in the blood", "setting": "[4]", "value": 45, "unit": "%"}, {"measurement": "melting point", "value": "65 to 67", "unit": "°C"}, {"measurement": "Ki", "setting": "[5]", "value": "1.6 ± 0.2", "unit": "nM"}, {"measurement": "selectivity for the TPSO over the CBR", "setting": "[5]; in vitro", "value": 110, "unit": "fold"}, {"measurement": "Ki", "setting": "[6]", "value": "4.5 ± 0.6", "unit": "nM"}, {"measurement": "effect of coincubation on the differential (lesioned vs contralateral) binding of [^125I]-CLINME", "setting": "[7]", "value": "eliminated"}]}
{"smiles": "CCC(C)N(C)C(=O)c1cc2ccccc2c(-c2ccccc2Cl)n1", "note": "(centres unmarked) [PK11195]", "values": [{"measurement": "chromatographic logP", "setting": "[2]; HPLC retention times compared with standards of known log P", "value": 3.35}, {"measurement": "decrease of [^123I]-CLINME uptake in the heart", "setting": "[4]", "value": 87, "unit": "%"}, {"measurement": "decrease of [^123I]-CLINME uptake in the kidney", "setting": "[4]", "value": 72, "unit": "%"}, {"measurement": "decrease of [^123I]-CLINME uptake in the lungs", "setting": "[4]", "value": 81, "unit": "%"}, {"measurement": "decrease of [^123I]-CLINME uptake in the olfactory bulbs", "setting": "[4]", "value": 36, "unit": "%"}, {"measurement": "increase of [^123I]-CLINME uptake in the blood", "setting": "[4]", "value": 29, "unit": "%"}, {"measurement": "block of the uptake of [^123I]-PK11195 in the adrenals", "setting": "[8]", "value": 85, "unit": "%"}, {"measurement": "effect of coincubation on the differential (lesioned vs contralateral) binding of [^125I]-CLINME", "setting": "[7]", "value": "eliminated"}]}
{"smiles": "CCN([11CH3])C(=O)Cc1c(-c2ccc(I)cc2)nc2ccc(Cl)cn12", "note": "[[^11C]-CLINME]", "values": [{"measurement": "ratio lesion versus contralateral striatum, PET", "setting": "[9]", "value": "2.14 ± 0.09"}]}
{"smiles": "CCC(C)N([11CH3])C(=O)c1cc2ccccc2c(-c2ccccc2Cl)n1", "note": "(centres unmarked) [[^11C]-PK11195]", "values": [{"measurement": "ratio lesion versus contralateral striatum, PET", "setting": "[9]", "value": "1.62 ± 0.05"}]}
{"smiles": "COc1ccc(OCC[18F])c(CN(C(C)=O)c2cc(F)ccc2Oc2ccccc2)c1", "note": "[[^18F]FE-DAA1106]", "values": [{"measurement": "ratio of uptake olfactory bulbs versus rest of brain", "setting": "[10]", "value": 3.5}]}
{"smiles": "CCN(CC)C(=O)Cc1c(-c2ccc([123I])cc2)nc2ccc(Cl)cn12", "note": "[[^123I]-CLINDE]", "values": [{"measurement": "ratio of uptake olfactory bulbs versus rest of brain", "setting": "[10]; at 8 h", "value": 6}]}
{"smiles": "CCCN(CCC)C(=O)Cc1c(-c2ccc(Cl)cc2)nc2ccc(Cl)cn12", "note": "[alpidem]", "values": [{"measurement": "selectivity for the TPSO over the CBR", "setting": "[1]", "value": 20, "unit": "fold"}]}
